Legend:
MMP-2 = assay: Gelatin zymography of FPCL conditioned medium; format: cell-based, human; details: PEP005 0.01-0.1 μg/ml
Description: The ability of dermal fibroblasts to remodel/reorganize their ECM environment in the presence of PEP005 was examined by fibroblast populated collagen lattices (FPCLs), according to Cook et al (2000). Following trypsinization, dermal fibroblasts were suspended in Fibroblast-Serum Containing Medium, containing 10% gelatinase-free, fetal calf serum (prepared using a gelatin-A Sepharose column, GE Healthcare Ltd., Buckinghamshire, U.K.), to remove endogenous MMP-2 and MMP-9 activity. […] The degree of ECM reorganization/lattice contraction was quantified from three separate lattice diameter measurements performed on each of the three replicate samples, at days 1, 2, 3, 4, 5, 6, 7, 10 and 14, after initial fabrication. […]
To determine the relative amounts of pro- and active MMP species produced by the cells in the FPCL systems, gelatin zymography was employed, according to Cook et al (2000). Equal volumes (15 μl) of FPCL conditioned medium were subjected to sodium dodecyl sulphate-polyacrylamide gel electrophoresis (SDS-PAGE), on pre-cast 10% gelatin zymography gels (Ready Gel 10% Gelatin Zymogram Gels, Bio-Rad Laboratories Ltd., Hertfordshire, U.K.), incorporated into a Mini-Protean 3 Gel Electrophoresis System (Bio-Rad Laboratories Ltd.), at 15 mA for 4-5 h. […]

[1] = Storage stability of PEP005 preparations; format: physicochemical; details: stored at 4° C.
Description: PEP005 was supplied by Peplin Limited, Brisbane, Australia, in 20 mg batches and stored at 4° C. When required, the PEP005 was solubilized in dimethyl sulphoxide (DMSO, >99.9%, Sigma Chemical Co., Dorset, U.K.), at a concentration of 10 mg/ml.
PEP005 was supplied by Peplin Limited, Brisbane, Australia as 0.01% (100 μg/ml), 0.028% (280 μg/ml) and 0.05% (500 μg/ml) preparations in a DMSO/isopropanol-based gel. PEP005-free, DMSO/isopropanol-based carrier gel was also supplied to serve as a vehicle control.

With `C/C=C(/C)C(=O)O[C@H]1C(C)=C[C@]23C(=O)[C@@H](C=C(CO)[C@@H](O)[C@]12O)[C@H]1[C@@H](C[C@H]3C)C1(C)C` [PEP005, ingenol-3-angelate] the “Pro and active MMP-2 levels” value (MMP-2) was “observed to increase”, the “stability of PEP005 gels” value ([1]; 0.01%, 0.028% and 0.05% preparations in DMSO/isopropanol-based gel) was “stable for several months” and the “stability of PEP005/DMSO stock solution” value ([1]; 10 mg/ml in DMSO) was “stable for several months”.

Reference: patent US20090215884A1, “METHOD FOR WOUND HEALING” (priority 2005, published 2009)
